According to patent US10907219B2, “Compositions and methods for controlling cellular function” (STC.UNM, priority 2014, dated 2021):

Legend:
[1] = test system: myr-ABI and EGFP-PYL-Tiam1 in CHO cells; assay: Live cell imaging of cytoskeletal remodeling; assay type: cell-based; settings: 405 nm irradiation
Experimental: (§1) To test the uncaging process in live cell experiments, EGFP nuclear export experiments were carried out by transfecting CHO cells with EGFP-PYL and NES-ABI constructs. The cells were then either treated with 10 μM ABA-DEACM and with or without 405 nm light irradiation under a confocal microscope, or with no drug but irradiated. The subcellular location of EGFP was followed for 20 minutes after irradiation. […] We also tested the use of ABA-DEACM in live cell imaging to induce cell morphology changes. We transfected CHO cells in a culture chamber with myr-ABI and EGFP-PYLTiam1 constructs.
Live cell confocal microscopy irradiation and imaging: EGFP fluorescence of CHO cells was detected with an LSM 510 Meta confocal mounted on an AxioObserver inverted microscope (Carl Zeiss AG, Oberkochen, Germany). ABA-DEACM was uncaged by using a 405 nm UV laser (25 mW) set to 25% power for approximately three seconds. To image, fluorescence was excited with the 488 nm line of an argon laser (30 mW) with laser power attenuated to 50%. EGFP emission was collected with a FITC filter. Live cells were plated in 8-well coverslip-bottom culture chambers in medium (200 μL) and maintained at 37° C. with an objective lens heater (Bioptechs Inc., Butler, Pa.). Culture medium was exchanged with OptiMEM (GIBCO, Life Technologies, Carlsbad, Calif.) with caged ABA or no drug prior to imaging. Images were acquired every 10 to 20 seconds in different experiments with a 63×5/1.2 NA water objective.

[2] = test system: EGFP-PYL and NES-ABI in CHO cells; assay: Live cell confocal EGFP nuclear export; assay type: cell-based; settings: 10 μM, 405 nm irradiation, followed 20 minutes
Experimental: as §1
Live cell confocal microscopy irradiation and imaging: EGFP fluorescence of CHO cells was detected with an LSM 510 Meta confocal mounted on an AxioObserver inverted microscope (Carl Zeiss AG, Oberkochen, Germany). […] To image, fluorescence was excited with the 488 nm line of an argon laser (30 mW) with laser power attenuated to 50%. […]
Image analysis of fluorescence intensity in nuclear export experiments: Generated images were analyzed for fluorescence intensity by using Slide Book v.6 software (Intelligent Imaging Innovations, Inc., Denver, Colo.). Equal sized regions of interest were analyzed from the cytoplasm and the nucleus to compare fluorescent intensity of EGFP in three cells for each condition from images taken every 20 seconds for a duration of 20 minutes.

[3] = Reaction selectivity of ABA-HP versus different molecules (HPLC); assay type: physicochemical; settings: four hours
Experimental: Reaction selectivity versus different molecules: 100 μM ABA-HP was incubated with 100 μM (1 eq) of different molecules in 50% HEPES/DMSO (pH 7.4) at 37° C. for 4 hours and detected by HPLC. H2S was generated by 100 μM Na2S solution in HEPES buffer, which can slowly release H2S. .OH and .OtBu were generated by reaction of Fe^2+ with H2O2 or tert-butyl hydroperoxide (TBHP), respectively. HPLC condition was the same as the stability and reactivity test of ABA-HP.

effect of Cu^+ and Cu^2+ ([3]; Cu^+ and Cu^2+ at 10 μM) | cleavage by Cu^+ and Cu^2+ ([3]; Cu^+ and Cu^2+ at 100 μM) | Compound | start of membrane ruffling after uncaging [1] [min] | time to formation of fillopodia and lemellopodia [1] [min] | time to formation of filopodia and lamellipodia [1] [min] | nuclear export of EGFP fusion proteins [2] | stability against other ROS, H2S, metal ions ([3]; 100 μM ABA-HP, molecules at 100 μM, 37° C.)
 |  | CCN(CC)c1ccc2c(COC(=O)/C=C(C)\C=C\[C@@]3(O)C(C)=CC(=O)CC3(C)C)cc(=O)oc2c1 [ABA-DEACM] | 5 | ≤ 15 | ≤ 15 | observed within a few minutes | 
no effects | minimal amount of cleavage | CC1=CC(=O)CC(C)(C)[C@@]1(O)/C=C/C(C)=C\C(=O)OCc1ccc(B2OC(C)(C)C(C)(C)O2)cc1 [ABA-HP] |  |  |  |  | stable against all molecules tested at 100 μM
